In data set [1] the test system is NO production induced by LPS in BV-2 microglial cells. Kind of data set: Nitric oxide (NO) production inhibitory assay (Griess reaction). To be noted: for anti-inflammatory activity (reducing the release of NO), in words / inhibition at 20 µM: LPS-induced BV-2 microglial cells; for IC50 / inhibition at 20 µM: Mus musculus; for IC50: LPS (1 μg/mL)-induced BV-2 microglial cells, 24 h, 0.1–20.0 μM, read-out: IC50, inhibition of NO production. Format: cell-based, murine. The protocol:
BV-2 cells were seeded into 96-well plates at 2 × 10^4 cells/100 μL of medium and incubated for 24 h. Then, cells were treated with 1 μg/mL of lipopolysaccharide (LPS) and various concentrations (0.1–20.0 μM) of test compounds (DMSO as solvent) for 24 h. An equal amount of DMSO and LPS were served as the controls; quercetin (J&K Scientific, Beijing, China) was taken as the positive control). The NO concentration in the medium was measured by using a Nitric Oxide Assay Kit, according to the accumulated levels of nitrite in the supernatants by a standard Griess reaction. As follows, 50 μL of the culture supernatant of BV-2 cells was reacted with 50 μL of Griess reagent I and Griess regent II successively in a 96-well plate. The absorbance at 570 nm of the mixture was measured using a microplate reader. IC50 values were calculated as the concentrations that reduced NO production by 50%. Quercetin was taken as the positive control.

The nature of data set [2]: Cell viability by MTT assay. The format is cell-based, murine. The settings on record: mouse, BV-2 microglial cells, percentage of the LPS-only treatment group, compounds at 20 μM, 1 μg/mL LPS, BV-2 cells. On the procedure: BV-2 murine microglial cells, acquired from Peking Union Medical College Cell Bank, were cultured in Dulbecco’s modified Eagle’s medium supplemented with 10% (v/v) heat-inactivated fetal bovine serum, penicillin (100 U/mL), and streptomycin ([…]) in carbon dioxide cell incubator. When cell growth density outnumbered 90%, BV-2 cells were seeded in 96-well plates at a density of 2 × 10^4/well, 100 μL) and incubated for 24 h. Next, the cells were treated with the compounds (DMSO as solvent) at 20 μM for 24 h in DMEM with 1 μg/mL LPS. Cells treated with DMSO alone were used as the negative control. After adding 20 μL of 10 mg/mL MTT reagent to each well, the samples were shaken lightly and incubated at 37 °C for 4 h. The supernatant was removed, the blue-purple crystals were fully dissolved in DMSO (200 μL), and the absorbance of each well was read at 570 nm (Tecan Sunrise, Switzerland). Percentage of cell viability is calculated as: (absorbance of treated well/absorbance of control well) × 100%.

This note sets out measurements from publication PMC8141073, “Structurally Diverse Sesquiterpenoids with Anti-neuroinflammatory Activity from the Endolichenic Fungus Cryptomarasmius aucubae” (Natural Products and Bioprospecting, 2021).

Where only a bound is given, the exact number is not on record here.

For the compound `CC(=O)OCC1(C)CC2=C(C)C3(OC(C)=O)CCC3(C)CC2C1` (centres unmarked) [Compound 1, sterpurol D], in data set [1], the “anti-inflammatory activity (reducing the release of NO), in words” value is “moderate anti-inflammatory activity”; the IC50 is 14.8 ± 2.23 µM; 20 µM produced 75.9% inhibition. For the same compound, in data set [2], the viability at 24 h, 20 µM worked out at 103 ± 4.73%.
For the compound `CC(=O)O[C@@]12C[C@H](O)[C@]1(C)C[C@H]1C[C@@](C)(CO)CC1=C2C` [Compound 2, sterpurol E], in data set [1], the “anti-inflammatory activity (reducing the release of NO), in words” value is given as “moderate anti-inflammatory activity”; the IC50 was found to be 9.93 ± 0.99 µM; the inhibition at 20 µM is 85.4%. Further, the viability at 24 h, 20 µM in data set [2] came to 97.1 ± 4%.
For `CC1=C2C[C@](C)(CO)C[C@@H]2C[C@@]2(C)CC[C@@]12O` [Compound 4, sterpurol A], in data set [1], the “anti-inflammatory activity (reducing the release of NO), in words” value is “moderate anti-inflammatory activity”; the IC50 was 15.3 ± 1.43 µM; the inhibition at 20 µM was found to be 73.1%. Also, in data set [2], the viability at 24 h, 20 µM amounted to 98.7 ± 1.18%.
On to `CC(=O)O[C@@]12CC[C@]1(C)C[C@H]1C[C@@](C)(CO)CC1=C2C` [Compound 5, sterpurol B], for which, in data set [1], the “anti-inflammatory activity (reducing the release of NO), in words” value was “significant anti-inflammatory activity”; the IC50 was 9.06 ± 1.13 µM; the inhibition at 20 µM stood at 99.3%. For the same compound, in data set [2], the viability at 24 h, 20 µM is 107 ± 2.73%.
For `CC1=C2C[C@@](C)(C(=O)O)C[C@H]2C[C@](C)(O)C12CC2` [Compound 6, paneolilludinic acid], in data set [1], the “anti-inflammatory activity (reducing the release of NO), in words” value is listed as “moderate anti-inflammatory activity”; the 50% inhibitory concentration (IC50) was determined as 11.5 ± 0.58 µM; the inhibition at 20 µM came to 79.1%. In addition, the viability at 24 h, 20 µM in data set [2] worked out at 104 ± 2.67%.
`CC1=CC2C(C[C@H]1O)[C@@](C)(O)CC[C@H]2C(C)C` (stereo partly drawn) [Compound 7, murolane-2α, 9β-diol-3-ene]: in data set [1], the IC50 is over 20 µM and the inhibition at 20 µM worked out at 51.7%.
In the case of `C/C(=C\CO)CC/C=C(\C)CC[C@@H](O)C(C)(C)O` [Compound 8, (–)-10,11-dihydroxyfarnesol], in data set [1], the “anti-inflammatory activity (reducing the release of NO), in words” value is reported as “moderate anti-inflammatory activity”; the IC50 was determined as 12.2 ± 0.4 µM; the inhibition at 20 µM was 76.8%. Moreover, the viability at 24 h, 20 µM in data set [2] is 99.12 ± 0.18%.
Take `O=c1c(O)c(-c2ccc(O)c(O)c2)oc2cc(O)cc(O)c12` [Quercetin, quercetin, reference compound]: in data set [1], the IC50 came out at 9.75 ± 0.79 µM and the inhibition at 20 µM amounted to 95.6%. Besides, the viability at 24 h, 20 µM in data set [2] worked out at 101.5 ± 0.83%.
